Reference: patent US20040267017A1, “3-pyridyl or 4-isoquinolinyl thiazoles as c17, 20 lyase inhibitors” (priority 2001, published 2004)
Like-named read-outs stand apart in the source and are kept apart here.

Tests used:
[1] = target: T1, Recombinant murine C17,20 lyase (mLyase) (Mus musculus, UniProt P27786); experiment: Murine C17,20 lyase biochemical assay (DHEA formation, RIA/SPA, cytochrome b5 omitted); settings: Table V
T1 construct: made in house; host or cells: Sf9 insect cells (baculovirus), by analogy ('in a similar manner'); enriched microsomes
T1 sequence (P27786 1-507): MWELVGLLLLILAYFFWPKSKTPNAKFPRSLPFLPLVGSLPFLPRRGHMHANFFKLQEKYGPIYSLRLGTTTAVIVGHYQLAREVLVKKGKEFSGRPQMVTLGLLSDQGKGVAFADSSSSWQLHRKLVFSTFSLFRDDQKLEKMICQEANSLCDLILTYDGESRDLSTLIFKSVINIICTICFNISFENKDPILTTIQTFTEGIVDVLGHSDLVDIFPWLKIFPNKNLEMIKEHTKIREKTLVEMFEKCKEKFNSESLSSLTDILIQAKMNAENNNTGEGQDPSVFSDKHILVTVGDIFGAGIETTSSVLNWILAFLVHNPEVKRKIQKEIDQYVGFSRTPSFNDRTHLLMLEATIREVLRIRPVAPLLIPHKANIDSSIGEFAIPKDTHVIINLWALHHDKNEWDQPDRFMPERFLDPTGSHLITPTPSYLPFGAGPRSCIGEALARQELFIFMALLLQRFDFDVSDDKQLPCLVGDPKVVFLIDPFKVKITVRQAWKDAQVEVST
Method: Recombinant human C17,20 lyase (hLyase) was expressed in (Sf9) cells, and hLyase enriched microsomes were prepared from cultures as described in the following reference: Baculovirus Expression of Bovine P450 in Sf9 Cells and Comparison with Expression in Yeast, Mammalian Cells, and E. Coli. Barnes H. J.; Jenkins, C. M.; Waterman, M. R., Archives of Biochemistry and Biophysics (1994) 315(2)489-494. Recombinant murine C17,20 lyase (mLyase) was prepared in a similar manner. hLyase and mLyase preparations were titrated using assay conditions to determine protein concentrations to be used for assays. […]
(§1) Enzymatic reactions were allowed to run for 2 h at rt with gentle agitation. […] The concentration of DHEA generated by hLyase was determined by radioimmunoassay (RIA) as described below.
(§2) 0.08 μCi ^3H-DHEA (1.6 μCi/mL) (NEN (NET814)) in scintillation proximity assay (SPA) buffer (100 mM Tris-HCl, pH 7.5, 50 mM NaCl, 0.5% BSA (Sigma A9647), 0.2% Tween 20) was added to each well. […] Mixtures were allowed to equilibrate with gentle agitation for 1 h followed by an overnight equilibration with no agitation. ^3H-DHEA bound to the SPA beads was determined by scintillation counting.
The concentration of DHEA generated in each reaction was calculated from raw data (CPM) and the standard curve. […]

[2] = target: T2, Recombinant human C17,20 lyase (hLyase) (Homo sapiens, UniProt P05093); experiment: Human C17,20 lyase biochemical assay (DHEA formation, RIA/SPA)
T2 construct: made in house; host or cells: Sf9 insect cells (baculovirus); hLyase-enriched microsomes
T2 sequence (P05093 1-508): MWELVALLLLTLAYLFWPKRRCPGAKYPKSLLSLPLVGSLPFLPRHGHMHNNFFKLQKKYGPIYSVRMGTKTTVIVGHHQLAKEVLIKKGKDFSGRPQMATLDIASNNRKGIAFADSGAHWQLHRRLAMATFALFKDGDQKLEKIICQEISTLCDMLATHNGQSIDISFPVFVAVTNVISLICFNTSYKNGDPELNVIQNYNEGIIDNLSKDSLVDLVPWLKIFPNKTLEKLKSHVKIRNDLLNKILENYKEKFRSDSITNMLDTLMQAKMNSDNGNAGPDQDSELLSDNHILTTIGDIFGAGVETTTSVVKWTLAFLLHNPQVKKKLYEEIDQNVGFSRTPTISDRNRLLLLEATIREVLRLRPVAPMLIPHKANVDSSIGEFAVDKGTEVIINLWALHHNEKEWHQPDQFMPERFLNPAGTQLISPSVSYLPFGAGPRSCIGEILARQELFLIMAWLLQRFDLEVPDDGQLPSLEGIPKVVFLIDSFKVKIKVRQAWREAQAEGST
Method: Recombinant human C17,20 lyase (hLyase) was expressed in (Sf9) cells, and hLyase enriched microsomes were prepared from cultures as described in the following reference: Baculovirus Expression of Bovine P450 in Sf9 Cells and Comparison with Expression in Yeast, Mammalian Cells, and E. Coli. Barnes H. J.; Jenkins, C. M.; Waterman, M. R., Archives of Biochemistry and Biophysics (1994) 315(2)489-494. Recombinant murine C17,20 lyase (mLyase) was prepared in a similar manner. hLyase and mLyase preparations were titrated using assay conditions to determine protein concentrations to be used for assays. Both mLyase and hLyase assays were run in an identical manner except that cytochrome b5 was omitted in the murine assays.
Test compounds were diluted […], serially in six steps, with 100% DMSO starting from 800 μM going to 51.2 nM reserving the first 2 columns for the generation of a standard curve. Each of these compound solutions in 100% DMSO was further diluted twenty fold in H2O to obtain compound concentrations ranging from 40 μM to 2.56 nM in 5% DMSO. […]
as §1, §2
The concentration of DHEA generated in each reaction was calculated from raw data (CPM) and the standard curve. The lyase inhibitory activity of each compound was determined as the concentration of DHEA generated in the presence of test compounds, expressed as a percent inhibition compared to the DHEA concentration generated in the absence of test compounds (1−(nM DHEA formed in the presence of test compound/nM DHEA formed in the absence of test compounds)×100).

[3] = system: powdery mildew; experiment: Test against powdery mildew
[4] = read-out: inhibitory IC50 against C17,20 human lyase

SMILES	melting point	IC50 [1]	IC50 [2, 4]	other results
Cl.Clc1ccc(-c2csc(-c3cnccc3Cl)n2)cc1	176.5 to 183.5 °C			
Clc1ccc(-c2csc(-c3cccnc3)n2)c(Cl)c1 [2-(3-pyridyl)-4-(2,4-dichlorophenyl)thiazole, reference compound]		1400 nM	406 nM	% Inhibition against Powdery Mildew ([3]; *Statistically insignificant): 80%
Cc1ccncc1-c1nc(-c2ccc(Cl)cc2Cl)cs1 [2-[4-methyl-3-pyridyl)-4-(2,4-dichlorophenyl)thiazole]		39.7 nM	15 nM	IC50 ([2]; Table V, read-out: Human Lyase IC50): 15.1 nM; % Inhibition against Powdery Mildew ([3]; *Statistically insignificant; listed as 2-[4-methyl-3-pyridyl)-4-(2,4dichlorophenyl)thiazole): devoid of activity; % Inhibition against Powdery Mildew ([3]; *Statistically insignificant, listed as drawing 261): 10%*

The next lines start with results.

melting point	SMILES	IC50 [1]	IC50 [2, 4]	other results
165.5 to 170 °C	Cc1ccncc1-c1nc(Cc2ccc(Cl)cc2)cs1.Cl			
110 °C	Cc1sc(-c2cccnc2)nc1Nc1ccccc1 [Example 6]			
